The text below walks through data of ChEMBL document CHEMBL5726505, “Heteroaryl compounds as IRAK inhibitors and uses thereof” (2017).

SMILES strings stand for the structures.

In this assay the target is T1, Interleukin-1 receptor-associated kinase 4 (Homo sapiens, UniProt Q9NWZ3).
T1 sequence (Q9NWZ3 whole entry): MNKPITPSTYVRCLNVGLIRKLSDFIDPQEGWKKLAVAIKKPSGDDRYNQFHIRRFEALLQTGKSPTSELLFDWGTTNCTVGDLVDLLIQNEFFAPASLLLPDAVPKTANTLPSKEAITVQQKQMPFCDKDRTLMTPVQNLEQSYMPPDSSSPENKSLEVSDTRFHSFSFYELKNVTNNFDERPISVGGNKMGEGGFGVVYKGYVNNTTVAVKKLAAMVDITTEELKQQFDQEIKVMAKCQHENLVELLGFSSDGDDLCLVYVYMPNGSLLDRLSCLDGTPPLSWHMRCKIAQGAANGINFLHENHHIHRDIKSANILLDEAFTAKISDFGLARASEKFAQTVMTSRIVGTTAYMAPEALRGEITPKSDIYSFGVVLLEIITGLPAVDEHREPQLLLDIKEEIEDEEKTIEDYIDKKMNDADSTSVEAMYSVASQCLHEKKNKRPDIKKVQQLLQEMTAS
The assay is described as follows: Enzymatic Assay: IRAK4 is a human purified recombinant enzyme (His-TEV-[…] ([…]). IRAK4 hydrolyses ATP, autophosphorylates and phosphorylates a Serine/Threonine generic peptidic substrate (STK: 61ST1BLC from CisBio International based in Bagnols/Cèze FR).Measurement of IRAK-4 inhibition was performed in streptavidin coated 384well FlashPlate (PerkinElmer #SMP410A). His-TEV-IRAK4 (20 ng/well), ATP (2 μM, [33P]ATP 0.25 µCi/well), STK1-biotin peptide (300 nM) and compounds in DMSO (range of concentrations from 20 µM to 1 nM) or controls (2% DMSO) were incubated for 3 hours at 30° C. in assay buffer: Hepes pH7.0 50 mM, Fatty acid-free BSA 0.1%, Dithiothreitol DTT 2 mM, MgCl2 10 mM, EGTA 0.5 mM, Tween-20 0.01%, MnCl2 5 mM.
For the compound `Cn1cc(-c2cccc(-c3ncc(-c4cnn(C)c4)c(N[C@H]4CCN(S(C)(=O)=O)C4)n3)c2)cn1`, the IC50 is less than 100 nM.
As for `Cn1cc(-c2cccc(-c3ncc(-c4ccn(C)n4)c(O[C@@H]4CCC[C@@H](N)[C@@H]4O)n3)c2)cn1`, the 50% inhibitory concentration (IC50) is less than 100 nM.
The same measure for `Cc1nnc(-c2cnc(-c3cccc(-c4cnn(C)c4)c3)nc2NC2CCN(S(C)(=O)=O)CC2)s1`: less than 100 nM.
`Cn1cc(-c2cccc(-c3ncc(-c4cnn(C)c4)c(NCC4CCCN(C(=O)OC(C)(C)C)C4)n3)c2)cn1` (centres undefined): the IC50 is more than 5000 nM.

As a reminder, the IC50 is the point on the concentration scale where inhibition reaches its midpoint.
